≈ marks a conversion by molar mass, not a printed value.
Legend:
Type in all cases: cell-based
[1] = tested on: glycopeptide-intermediate Staphylococus aureus (GISA) (D); experiment: MIC, NCCLS microdilution broth procedure, GISA (D)
Description: (§1) The following table identifies specific species of compounds according to the present invention and information concerning their associated antibacterial activity. The antibacterial activity of a compound in accordance with the present invention, chloro-biphenyl-rearranged norvacomycin (B), was tested and compared to unmodified vancomycin (Van) and norvancoycin (Nor). MIC (minimum inhibitory concentration) was measured according to NCCLS standards using the microdilution broth prodcedure. Serial dilutions of the compounds were placed in a 96-well microplate containing Mueller-Hinton medium. Based on absorbance of 600 nm, diluted overnight cultures were placed in the wells at a final concentration of 5×10^5 cfu/mL. The plate was then placed in a culture box at 35° C. The next day, MIC was determined by visual observation of the plates. The glycopeptides were tested against a variety of strains well known in the art for such testing, including methicillin-susceptible Staphylococus aureus (MSSA), methicillin-susceptible Staphylococus epidermidis (MSSE), methicillin-resistant Staphylococus aureus (MRSA), methicllin-resistant Staphylococus epidermidis (MRSE), and glycopeptide-intermediate Staphylococus aureus (GISA). Results are shown in the Table 1 as minimum inhibitory concentration (MIC) in units of μg/ml: […]

[2] = tested on: methicllin-resistant Staphylococus epidermidis (MRSE); experiment: MIC, NCCLS microdilution broth procedure, MRSE
Description: as §1

[3] = tested on: methicillin-susceptible Staphylococus epidermidis (MSSE); experiment: MIC, NCCLS microdilution broth procedure, MSSE
Description: as §1

[4] = tested on: methicillin-resistant Staphylococus aureus (MRSA); experiment: MIC, NCCLS microdilution broth procedure, MRSA
Description: as §1

[5] = tested on: glycopeptide-intermediate Staphylococus aureus (GISA) (V); experiment: MIC, NCCLS microdilution broth procedure, GISA (V)
Description: as §1

[6] = tested on: methicillin-susceptible Staphylococus aureus (MSSA); experiment: MIC, NCCLS microdilution broth procedure, MSSA
Description: as §1

| SMILES | minimum inhibitory concentration (MIC) ([1]; GISA (D) strain # 68) | minimum inhibitory concentration (MIC) ([1]; GISA (D) strain # 143) | minimum inhibitory concentration (MIC) ([2]; MRSE strain # 24) | minimum inhibitory concentration (MIC) ([2]; MRSE strain # 25) | minimum inhibitory concentration (MIC) ([2]; MRSE strain # 26) | minimum inhibitory concentration (MIC) ([3]; MSSE strain # 3) | minimum inhibitory concentration (MIC) ([3]; MSSE strain # 10) | minimum inhibitory concentration (MIC) ([4]; MRSA strain # 134) | minimum inhibitory concentration (MIC) ([4]; MRSA strain # 143) | minimum inhibitory concentration (MIC) ([5]; GISA (V) strain # 68) | minimum inhibitory concentration (MIC) ([5]; GISA (V) strain # 143) | minimum inhibitory concentration (MIC) ([6]; MSSA strain # 68) | minimum inhibitory concentration (MIC) ([6]; MSSA strain # 83) |
| --- | --- | --- | --- | --- | --- | --- | --- | --- | --- | --- | --- | --- | --- |
| CC(C)C[C@@H](N)C(=O)N[C@H]1C(=O)N[C@@H](CC(N)=O)C(=O)N[C@H]2C(=O)N[C@H]3C(=O)N[C@H](C(=O)N[C@H](C(=O)O)c4cc(O)cc(O)c4-c4cc3ccc4O)[C@H](O)c3ccc(c(Cl)c3)Oc3cc2cc(c3O[C@@H]2O[C@H](CO)[C@@H](O)[C@H](O)[C@H]2O[C@H]2C[C@](C)(N)[C@H](O)[C@H](C)O2)Oc2ccc(cc2Cl)[C@H]1O [Nor, norvancoycin] | 4 µg/mL (≈ 2.79 µM) | 4 µg/mL (≈ 2.79 µM) | 2 µg/mL (≈ 1.39 µM) | 2 µg/mL (≈ 1.39 µM) | 2 µg/mL (≈ 1.39 µM) | 2 µg/mL (≈ 1.39 µM) | 2 µg/mL (≈ 1.39 µM) | 2 µg/mL (≈ 1.39 µM) | 2 µg/mL (≈ 1.39 µM) | 4 µg/mL (≈ 2.79 µM) | 8 µg/mL (≈ 5.57 µM) | 2 µg/mL (≈ 1.39 µM) | 2 µg/mL (≈ 1.39 µM) |
| CN[C@H](CC(C)C)C(=O)N[C@H]1C(=O)N[C@@H](CC(N)=O)C(=O)N[C@H]2C(=O)N[C@H]3C(=O)N[C@H](C(=O)N[C@H](C(=O)O)c4cc(O)cc(O)c4-c4cc3ccc4O)[C@H](O)c3ccc(c(Cl)c3)Oc3cc2cc(c3O[C@@H]2O[C@H](CO)[C@@H](O)[C@H](O)[C@H]2O[C@H]2C[C@](C)(N)[C@H](O)[C@H](C)O2)Oc2ccc(cc2Cl)[C@H]1O [Van, vancomycin] | 8 µg/mL (≈ 5.52 µM) | 4 µg/mL (≈ 2.76 µM) | 2 µg/mL (≈ 1.38 µM) | 2 µg/mL (≈ 1.38 µM) | 2 µg/mL (≈ 1.38 µM) | 2 µg/mL (≈ 1.38 µM) | 2 µg/mL (≈ 1.38 µM) | 2 µg/mL (≈ 1.38 µM) | 2 µg/mL (≈ 1.38 µM) | 8 µg/mL (≈ 5.52 µM) | 8 µg/mL (≈ 5.52 µM) | 2 µg/mL (≈ 1.38 µM) | 2 µg/mL (≈ 1.38 µM) |
